The values below come from ChEMBL document CHEMBL4392837, “Identification of highly potent and selective MMP2 inhibitors addressing the S1' subsite with d-proline-based compounds” (Bioorg Med Chem, 2019).

The species named for this assay is Homo sapiens. Put plainly: Inhibition of cell migration of human A375M6 cells at 1 to 10 uM incubated for 6 hrs by Boyden chambers assay. It counts as functional.

Each structure is given as a SMILES string. Active and inactive are the calls of the source. The calls are words filed in the database; no cut-off is given here.

For `CNC(=O)[C@H](Cc1c[nH]c2ccccc12)NC(=O)[C@@H](CC(=O)NO)CC(C)C`, the inhibition entry is “Active”.
